In patent publication US20240207427A1, “SELECTIVE DRUG RELEASE FROM INTERNALIZED CONJUGATES OF BIOLOGICALLY ACTIVE COMPOUNDS” (priority 2021, published 2024):
pIC50: −log10 of the molar value. Like-named read-outs stand apart in the source and are kept apart here.

How the values were obtained:
Format in all cases: cell-based
[1] = system: breast cancer cells (MDA-MB-231); assay: In vitro potency (CellTiter-Glo, 96 h), MDA-MB-231; conditions: Homo sapiens, MDA-MB-231, 96 h, CPT free drugs, breast cancer cells MDA-MB-231, 96 h, CellTiter-Glo
Description: (§1) In vitro potency was assessed on multiple cancer cell lines. All cell lines were authenticated by STR profiling at IDEXX Bioresearch and cultured for no more than 2 months after resuscitation. Cells cultured in log-phase growth were seeded for 24 hours in 96-well plates containing […] RPMI 1640 supplemented with 20% FBS. Serial dilutions of antibody-drug conjugates in cell culture media were prepared at 4× working concentrations, and 50 μL of each dilution was added to the 96-well plates. Following addition of test articles, cells were incubated with test articles for 4 days at 37 0° C. After 96 hours, growth inhibition was assessed by CellTiterGlo® (Promega, Madison, WI) and luminescence was measured on a plate reader.
(§2) In Table 7, IC50 values for ADCs are given in ng/mL. Cell viability was determined by CellTiter-Glo staining after 96 h exposure to ADC. ND=Not Determined. Ag2 is an antibody targeting a ubiquitous and readily internalizable antigen. The cancer cell lines tested are renal carcinoma cells (786-0), melanoma cells (A2058), pancreatic cancer cells (BxPC3), non-small-cell lung cancer cells (Calu1), anaplastic large cell lymphoma cells (DEL, DELBVR, Karpas299), Hodgkin's lymphoma cells (L540cy), (Ls174T), breast cancer cells (MDA-MB-231), acute myeloid leukemia cells (MOLM-13), and B-lymphocyte cancer cells (SU-DHL4).
as §1, with “FBS.” for “FBS. Serial dilutions of antibody-drug conjugates in cell culture media were prepared at 4× working concentrations, and 50 μL of each dilution was added to the 96-well plates.”
(§3) Cell viability was determined by CellTiter-Glo staining after 96 h exposure to the compound. ND=Not Determined. The cancer cell lines tested are renal carcinoma cells (786-0), melanoma cells (A2058), pancreatic cancer cells (BxPC3), non-small-cell lung cancer cells (Calu1), anaplastic large cell lymphoma cells (DEL, DELBVR, Karpas299), Hodgkin's lymphoma cells (L540cy), (Ls 174T), breast cancer cells (MDA-MB-231), acute myeloid leukemia cells (MOLM-13), B-lymphocyte cancer cells (SU-DHL4), multiple myeloma cells (MM.1R), (U266), and melanoma cells (SK-MEL-5).
as §1, with “37°” for “37 0°”
(§4) In the following Tables IC50 values for ADCs and CPT free drugs are given in ng/mL and nmol/L concentrations. Cell viability was determined by CellTiter-Glo staining after 96 h exposure to ADC or CPT free drug.
(§5) Cell viability was determined by CellTiter-Glo staining after 96 h exposure to ADC. ND=Not Determined.

[2] = system: Ls174T cells; assay: In vitro potency (CellTiter-Glo, 96 h), Ls174T; conditions: Homo sapiens, CPT free drugs, Ls174T cells, 96 h, CellTiter-Glo
Description: as §1, §2
as §1, with “FBS.” for “FBS. Serial dilutions of antibody-drug conjugates in cell culture media were prepared at 4× working concentrations, and 50 μL of each dilution was added to the 96-well plates.”
as §3
as §1, with “37°” for “37 0°”
as §4, §5

[3] = system: pancreatic cancer cells (BxPC3); assay: In vitro potency (CellTiter-Glo, 96 h), BxPC3; conditions: Homo sapiens, BXPC-3, 96 h, CPT free drugs, pancreatic cancer cells BxPC3, 96 h, CellTiter-Glo
Description: as §1, §2
as §1, with “FBS.” for “FBS. Serial dilutions of antibody-drug conjugates in cell culture media were prepared at 4× working concentrations, and 50 μL of each dilution was added to the 96-well plates.”
as §3
as §1, with “37°” for “37 0°”
as §4, §5

[4] = system: acute myeloid leukemia cells (MOLM-13); assay: In vitro potency (CellTiter-Glo, 96 h), MOLM-13; conditions: Homo sapiens, MOLM-13, 96 h, CPT free drugs, acute myeloid leukemia cells MOLM-13, 96 h, CellTiter-Glo
Description: as §1, §2
as §1, with “FBS.” for “FBS. Serial dilutions of antibody-drug conjugates in cell culture media were prepared at 4× working concentrations, and 50 μL of each dilution was added to the 96-well plates.”
as §3
as §1, with “37°” for “37 0°”
as §4, §5

[5] = system: anaplastic large cell lymphoma cells (DEL); assay: In vitro potency (CellTiter-Glo, 96 h), DEL
Description: as §1, §2
as §1, with “FBS.” for “FBS. Serial dilutions of antibody-drug conjugates in cell culture media were prepared at 4× working concentrations, and 50 μL of each dilution was added to the 96-well plates.”
as §3
as §1, with “37°” for “37 0°”
as §4, §5

[6] = system: anaplastic large cell lymphoma cells (DELBVR); assay: In vitro potency (CellTiter-Glo, 96 h), DELBVR
Description: as §1, §2
as §1, with “FBS.” for “FBS. Serial dilutions of antibody-drug conjugates in cell culture media were prepared at 4× working concentrations, and 50 μL of each dilution was added to the 96-well plates.”
as §3
as §1, with “37°” for “37 0°”
as §4, §5

[7] = system: anaplastic large cell lymphoma cells (Karpas299); assay: In vitro potency (CellTiter-Glo, 96 h), Karpas299; conditions: Homo sapiens, KARPAS-299, 96 h, CPT free drugs, anaplastic large cell lymphoma cells Karpas299, 96 h, CellTiter-Glo
Description: as §1, §2
as §1, with “FBS.” for “FBS. Serial dilutions of antibody-drug conjugates in cell culture media were prepared at 4× working concentrations, and 50 μL of each dilution was added to the 96-well plates.”
as §3
as §1, with “37°” for “37 0°”
as §4, §5

[8] = system: Hodgkin's lymphoma cells (L540cy); assay: In vitro potency (CellTiter-Glo, 96 h), L540cy
Description: as §1, §2
as §1, with “FBS.” for “FBS. Serial dilutions of antibody-drug conjugates in cell culture media were prepared at 4× working concentrations, and 50 μL of each dilution was added to the 96-well plates.”
as §3
as §1, with “37°” for “37 0°”
as §4, §5

[9] = system: renal carcinoma cells (786-O); assay: In vitro potency (CellTiter-Glo, 96 h), 786-O; conditions: Homo sapiens, 786-0, 96 h, CPT free drugs, renal carcinoma cells 786-O, 96 h, CellTiter-Glo
Description: as §1, §2
as §1, with “FBS.” for “FBS. Serial dilutions of antibody-drug conjugates in cell culture media were prepared at 4× working concentrations, and 50 μL of each dilution was added to the 96-well plates.”
as §3
as §1, with “37°” for “37 0°”
as §4, §5

[10] = system: B-lymphocyte cancer cells (SU-DHL4); assay: In vitro potency (CellTiter-Glo, 96 h), SU-DHL-4; conditions: Homo sapiens, SU-DHL-4, 96 h, CPT free drugs, B-lymphocyte cancer cells SU-DHL4, 96 h, CellTiter-Glo
Description: as §1, §2
as §1, with “FBS.” for “FBS. Serial dilutions of antibody-drug conjugates in cell culture media were prepared at 4× working concentrations, and 50 μL of each dilution was added to the 96-well plates.”
as §3
as §1, with “37°” for “37 0°”
as §4, §5

[11] = read-out: MOLM-13 IC50, Table 28
[12] = read-out: MDAMB231 IC50, Table 28
[13] = LS174T, read-out: Ls174T IC50, Table 28
[14] = read-out: DEL IC50, Table 28, CPT free drugs, anaplastic large cell lymphoma cells DEL, CellTiter-Glo
[15] = read-out: DELBVR IC50, Table 28, CPT free drugs, anaplastic large cell lymphoma cells DELBVR, CellTiter-Glo
[16] = read-out: Karpas299 IC50, Table 28
[17] = read-out: L540cy IC50, Table 28, CPT free drugs, Hodgkin's lymphoma cells L540cy, CellTiter-Glo
[18] = read-out: SU-DHL-4 IC50, Table 28
[19] = read-out: MDAMB231 IC50, Table 29
[20] = LS174T, read-out: Ls174T IC50, Table 29
[21] = read-out: MOLM-13 IC50, Table 29
[22] = read-out: DEL IC50, Table 29, CPT free drugs, anaplastic large cell lymphoma cells DEL, CellTiter-Glo
[23] = read-out: DELBVR IC50, Table 29, CPT free drugs, anaplastic large cell lymphoma cells DELBVR, CellTiter-Glo
[24] = read-out: Karpas299 IC50, Table 29
[25] = read-out: L540cy IC50, Table 29, CPT free drugs, Hodgkin's lymphoma cells L540cy, CellTiter-Glo
[26] = read-out: SU-DHL-4 IC50, Table 29

Row | SMILES | pIC50 [4, 11] | pIC50 [1, 12] | pIC50 [2, 13] | pIC50 ([3]; read-out: BxPC3 IC50, Table 28) | pIC50 [6, 15] | pIC50 [7, 16] | pIC50 [8, 17] | pIC50 ([9]; read-out: 786-O IC50, Table 28) | pIC50 [10, 18] | pIC50 [1, 19] | pIC50 [2, 20] | pIC50 ([3]; read-out: BxPC3 IC50, Table 29) | pIC50 [4, 21] | pIC50 [5, 22] | pIC50 [6, 23] | pIC50 [7, 24] | pIC50 [8, 25] | pIC50 ([9]; read-out: 786-O IC50, Table 29) | pIC50 [10, 26] | other results
1 | CC[C@@]1(O)C(=O)OCc2c1cc1n(c2=O)Cc2c-1nc1cc3c(cc1c2CN)COC3 [Compound 2ak] | 6.89 |  |  |  |  |  |  |  |  |  |  |  |  |  |  |  |  |  |  | pIC50 ([1]; Table 28, read-out: MDAMB231 IC50): 6.83; pIC50 ([2]; Table 28, read-out: Ls174T IC50): 7.30; pIC50 ([3]; Table 28, read-out: BxPC3 IC50): 7.06; pIC50 ([5]; Table 28, CPT free drugs, anaplastic large cell lymphoma cells DEL, CellTiter-Glo, read-out: DEL IC50): 8.22; pIC50 ([6]; Table 28, CPT free drugs, anaplastic large cell lymphoma cells DELBVR, CellTiter-Glo, read-out: DELBVR IC50): 8.22; pIC50 ([7]; Table 28, read-out: Karpas299 IC50): 7.40; pIC50 ([8]; Table 28, CPT free drugs, Hodgkin's lymphoma cells L540cy, CellTiter-Glo, read-out: L540cy IC50): 7.66; pIC50 ([9]; Table 28, read-out: 786-O IC50): 7.24; pIC50 ([10]; Table 28, read-out: SU-DHL-4 IC50): 7.96
2 | C=C(C)c1c(C)c(F)cc2nc3c(c(CN)c12)Cn1c-3cc2c(c1=O)COC(=O)[C@]2(O)CC [Compound 2al] | 8.70 | 8.05 | 7.96 | 8.15 | 9.00 | 8.40 | 8.70 | 8.40 | 9.00 |  |  |  |  |  |  |  |  |  |  | pIC50 [5, 14]: 9.00
3 | C=Cc1c(C)c(F)cc2nc3c(c(CN)c12)Cn1c-3cc2c(c1=O)COC(=O)[C@]2(O)CC [Compound 2am, (S)-11-(aminomethyl)-4-ethyl-8-fluoro-4-hydroxy-9-methyl-10-vinyl-1,12-dihydro-14H-pyrano[3′,4′:6,7]indolizino[1,2-b]quinoline-3,14(4H)-dione] | 8.70 | 8.30 | 8.30 | 8.40 | 9.52 | 8.70 | 9.00 | 8.70 | 9.00 |  |  |  |  |  |  |  |  |  |  | pIC50 [5, 14]: 9.52
4 | CC[C@@]1(O)C(=O)OCc2c1cc1n(c2=O)Cc2c-1nc1cc3c(cc1c2CNC[C@H](O)CN1CCCCC1)OCO3 [Compound 7aa] |  |  |  |  |  |  |  |  |  | 6.64 | 6.73 | 7.18 | 7.16 | 7.77 | 7.72 | 7.20 | 7.29 | 6.88 | 7.72 | 
5 | CC[C@@]1(O)C(=O)OCc2c1cc1n(c2=O)Cc2c-1nc1cc3c(cc1c2CNCCCN1CCN(C)CC1)OCO3 [Compound 7h] |  |  |  |  |  |  |  |  |  | 7.17 | 7.40 | 7.37 | 7.03 | 8.30 | 8.22 | 7.24 | 7.64 | 7.36 | 7.68 | 
6 | CC[C@@]1(O)C(=O)OCc2c1cc1n(c2=O)Cc2c-1nc1cc3c(cc1c2CNC[C@H](O)CO)OCO3 [Compound 7n] |  |  |  |  |  |  |  |  |  | 7.02 | 7.41 | 7.33 | 6.86 | 8.30 | 8.22 | 7.24 | 7.64 | 7.18 | 7.68 | 
7 | CC[C@@]1(O)C(=O)OCc2c1cc1n(c2=O)Cc2c-1nc1cc3c(cc1c2CNC1CCN(C)CC1)OCO3 [Compound 7w] |  |  |  |  |  |  |  |  |  | 7.59 | 7.80 | 7.89 | 7.59 | 8.70 | 8.70 | 8.10 | 8.22 | 7.82 | 8.22 | 
8 | CC[C@@]1(O)C(=O)OCc2c1cc1n(c2=O)Cc2c-1nc1cc3c(cc1c2CNC[C@@H](O)CN1CCCCC1)OCO3 [Compound 7z] |  |  |  |  |  |  |  |  |  | 6.51 | 7.10 | 6.90 | 6.84 | 7.77 | 7.80 | 6.82 | 7.32 | 6.91 | 7.41 | 
9 | CC[C@@]1(O)C(=O)OCc2c1cc1n(c2=O)Cc2c-1nc1cc3c(cc1c2CNCCN1CCNCC1)OCO3 [Compound 8b] |  |  |  |  |  |  |  |  |  | 6.59 | 6.95 | 7.29 | 7.04 | 8.10 | 7.89 | 7.21 | 7.25 | 6.99 | 7.77 | 
10 | CC[C@@]1(O)C(=O)OCc2c1cc1n(c2=O)Cc2c-1nc1cc3c(cc1c2CNC(C)=O)OCO3 [Compound 12b] | 8.52 | 7.55 | 7.66 | 7.96 | 9.00 | 8.10 | 8.40 | 7.92 | 9.00 |  |  |  |  |  |  |  |  |  |  | 
